Results on five molecules are retold here after paper PMC5226997 (European Journal of Clinical Pharmacology, 2016).

A short description of data set [1]: Study A: safety and tolerability (adverse events). The class given is in vivo, human.
For data set [2] the following is noted: human, in vivo.
From the text: (§1) The phase I, open-label, single-center, double-crossover-sequence, partially randomized (for assignment to treatment sequence), three-period itraconazole/fluconazole trial consisted of four visits to the study center (Fig. 1a). Subjects were screened during visit 1, which is 28 days prior to visit 2.
(§2) On day 1 of visit 2, subjects were randomized to one of two treatment sequences and admitted for residence at the study center up to day 12; standardized meals were provided during residency. […] Safety assessments were performed, and blood samples were collected for PK analysis up until day 12. Subjects were discharged on day 12 and completed a washout period of at least 21 days.
(§3) During visit 3, dosing period 3 comprised days 1–11 when subjects received the alternate treatment regimen (fluconazole 400 mg on day 1 followed by 200 mg once daily thereafter or itraconazole 200 mg twice daily) in a crossover fashion. […] Subjects were discharged on day 12. A follow-up visit, visit 4, was scheduled for 7–10 days after discharge from the study center.
(§4) Fluids were not allowed from 1 h pre- until 1 h post-dose, with the exception of 240 mL water to swallow the capsules. Fluconazole was dosed with a light breakfast; there were no restrictions regarding dosing with food in the SPC [8]. Itraconazole was dosed with a light breakfast and dinner as per SPC guidelines to ensure complete absorption [9].
(§5) Blood samples were collected prior to itraconazole or fluconazole administration on days 6 to 8 to determine trough itraconazole or fluconazole concentrations; rifampicin concentrations were measured at 2 h post-dose. In study B, the 4β-hydroxycholesterol to cholesterol concentration ratio was calculated as a biomarker of CYP3A4 induction. […] Samples were analyzed by Covance on behalf of AstraZeneca R&D, using an appropriate bioanalytical method [e.g., [11], [12]].
(§6) PK variables were summarized using descriptive statistics.
(§7) After addition of deuterated internal standard, samples were extracted by protein precipitation by the addition of 4 volumes of methanol:acetonitrile. After centrifugation, the supernatants were extracted to dryness under nitrogen at 50°C and reconstituted in methanol;water before analysis.
For data set [3] the following is noted: human, in vivo, 75 mg.
Method: (§8) The rifampicin open-label, fixed-sequence, single-center trial consisted of three visits to the study center (Fig. 1b). Subjects were screened during visit 1, which is 28 days prior to visit 2. […] Safety assessments were performed, and blood samples were collected for PK analysis up until day 15. Subjects were discharged from the study center on day 15. The final visit, visit 3, was for follow-up and took place 7–10 days after discharge.
(§9) Subjects received daily dosing of rifampicin 600 mg for 8 days to maximize the induction effect on CYP3A4 [10]. […] Fluids were not allowed from 1 h pre- until 1 h post-dose, with the exception of water needed to swallow investigational products.
as §5, §6, §7
Data set [4] can be described thus: Frozen storage stability in plasma samples. To be noted: plasma with K2EDTA; -20°C -80°C.
Method: as §7
For data set [5] the following is noted: human.
Method: as §7
Details of data set [6]: method as in earlier work. As to conditions: relative bioavailability trial NCT01635023; cited from earlier work.
The nature of data set [7]: Study A: plasma pharmacokinetics of single-dose selumetinib 25 mg alone or co-dosed with itraconazole or fluconazole. As to conditions: for AUC / Cmax / half-life: human, plasma, oral.
From the text: as §1, §2, §3, §4, §5, §6, §7
Data set [8] is described as follows: Study B: plasma pharmacokinetics of single-dose selumetinib 75 mg alone or co-dosed with rifampicin. As to conditions: human, in vivo.
Method: as §8, §9, §5, §6, §7
The nature of data set [9]: clinical. As to conditions: human, in vivo, 75 mg.
Method: as §8, §9, §5, §6, §7
Data set [10] can be described thus: Study B: safety and tolerability (adverse events). The format is in vivo, human. The procedure:
Adverse events (reported by system organ class and preferred term using the Medical Dictionary for Regulatory Activities (MedDRA) version 17.0), vital signs, 12-lead electrocardiograms (ECGs), and clinical laboratory tests were recorded to assess safety and tolerability in both trials. Adverse events were collected from day 1, period 1 of visit 2, until the follow-up visit in each trial. Serious adverse events were collected from the time of informed consent until follow-up. Each adverse event was assigned to the period of study treatment in which it started or worsened. Additional information regarding safety and tolerability is included as Online Resource 3.
The safety analysis set included any subject who received at least one dose of any of the investigational products, and in addition in the itraconazole/fluconazole trial, for whom post-dose data were available.

Where [11] appears, read: during single-agent (only) treatment.
Where [12] appears, read: co-dosed with fluconazole vs selumetinib alone.

Usually half-life stands for the time needed for the level to fall by half in the phase considered. The Tmax is the time from dosing to the highest level.

SMILES strings stand for the structures. Several values for one entry are separate records, joined by “and”; a condition that tells them apart may be missing. Equal values may be shown once. Read-outs that look alike come from different tables or passages of the source. Marks after values point to notes of the source that are not given here.

Turning to `OC(Cn1cncn1)(Cn1cncn1)c1ccc(F)cc1F` [fluconazole, reference compound], the “subjects reporting adverse events” value in [1] (setting [11]) amounted to 17.4%. The “trough plasma concentration (geometric mean)” value in data set [2] was in the range of 5590 to 5730 ng/mL.

As to `O=C(NOCCO)c1cc2nc[nH]c2c(F)c1Nc1ccc(Br)cc1Cl` [N-desmethyl selumetinib], in data set [3], the “AUC(0–t), geometric least squares mean (GLSMR line)” value was 347.3 ng·h/mL; the “C max, geometric least squares mean (GLSMR line)” value (shortened to “C max … (GLSMR line)”) was 106.4 ng/mL; the “MRAUC (AUC metabolite to parent ratio), arithmetic mean (SD)” value is given as 0.0921 (0.0236)^a; the “MRAUC(0–t) (AUC(0–t) metabolite to parent ratio), arithmetic mean (SD)” value was 0.0921 (0.0236). In data set [3], the “MRCmax (C max metabolite to parent ratio), arithmetic mean (SD)” value was 0.0760 (0.0187); the “t 1/2 arithmetic mean (SD)” value is given as 9.47 (3.24) h; the “t max median (min, max)” value is 1.50 (1.00, 3.00) h. In data set [4], the “established frozen storage stability period” value is listed as 9 months. In data set [2] (25 mg), the “AUC(0–t), geometric least squares mean (GLSMR line)” value came to 83.39 ng·h/mL; the “C max … (GLSMR line)” value is 35.67 ng/mL; the “MRAUC(0–t) (AUC(0–t) metabolite to parent ratio), arithmetic mean (SD)” value is reported as 0.0760 (0.0227); the “MRCmax (C max metabolite to parent ratio), arithmetic mean (SD)” value is on record as 0.0917 (0.0312). Further, in data set [2] (25 mg), the “t 1/2 arithmetic mean (SD)” value is 4.66 (2.38) h and the “t max median (min, max)” value is reported as 1.00 (0.50, 2.50) h.

Regarding `Cn1cnc2c(F)c(Nc3ccc(Br)cc3Cl)c(C(=O)NOCCO)cc21` [Selumetinib], the “C max … (GLSMR line)” value in [3] is reported as 1441 ng/mL. For the same molecule, the “CL/F arithmetic mean (SD)” value in data set [3] is reported as 17.0 (3.33) L/h; in data set [7] (study A, selumetinib 25 mg + fluconazole, N = 22), 14.8 (4.39) L/h; in data set [7] (study A, selumetinib 25 mg + itraconazole, N = 24) it was 14.9 (4.92) L/h; in data set [7] (study A, selumetinib 25 mg alone, N = 26), 21.9 (5.76) L/h. Moreover, the “established frozen storage stability period” value in data set [5] is reported as 24 months. Moreover, the “within-subject coefficient of variation (CV) for AUC” value in data set [6] is on record as 16.9%. In addition, in [6], the “within-subject coefficient of variation (CV) for C max” value was 34.0%. Besides, the “subjects reporting adverse events” value amounted to 7.7% in data set [1] (setting [11]); 18.2% in data set [1] (selumetinib co-dosed with fluconazole, 4/22); 29.2% in [1] (selumetinib co-dosed with itraconazole, n = 7/24). Besides, in [1] (selumetinib and itraconazole co-dosing, n = 2), the “subjects with selumetinib-related adverse events (diffuse alopecia, headache; mild)” value was 8.3%. The “subjects with selumetinib-related acne (mild)” value in data set [1] (selumetinib co-dosed with fluconazole, one subject) came out at 4.5%. For the same molecule, in data set [1] (selumetinib co-dosed with itraconazole, n = 4/24), the subjects reporting headache was 16.7%. Also, in [1] (selumetinib co-dosed with itraconazole, one subject), the “subjects reporting a moderate adverse event (headache)” value was determined as 4.2%. The tolerability entry in data set [1] (single dose or co-administered with itraconazole or fluconazole) and in [10] (single dose or co-administered with rifampicin) was “well tolerated” throughout. Moreover, the “AUC increased by” value in data set [7] (setting [12]) is 53% and ~ 50%. In addition, the “C max increased by” value in [7] (setting [12]) stood at 26%. Besides, the AUC in data set [7] (25 mg, AUC (CV%), study A, selumetinib 25 mg alone, N = 26) was found to be 1180 ng·h/mL; in data set [7] (25 mg, AUC, geometric least squares mean (GLSMR line), study A, selumetinib 25 mg alone, n = 26, linear mixed-effects model), 1180 ng·h/mL; in [7] (AUC (CV%), study A, selumetinib 25 mg + fluconazole, N = 22), 1770 ng·h/mL; in data set [7] (AUC (CV%), study A, selumetinib 25 mg + itraconazole, N = 24), 1760 ng·h/mL; in [7] (AUC, geometric least squares mean (GLSMR line), study A, selumetinib 25 mg + fluconazole, n = 22, linear mixed-effects model), 1820 ng·h/mL; in [7] (AUC, geometric least squares mean (GLSMR line), study A, selumetinib 25 mg + itraconazole, n = 24, linear mixed-effects model) it was 1770 ng·h/mL. In addition, the AUC in data set [8] amounted to 4480 ng·h/mL; in data set [9] (AUC, geometric least squares mean (GLSMR line)) it was 4480 ng·h/mL. Moreover, the Cmax in data set [7] (25 mg, C max (CV%), study A, selumetinib 25 mg alone, N = 26) stood at 409 ng/mL; in data set [7] (25 mg, C max, geometric least squares mean (GLSMR line), study A, selumetinib 25 mg alone, n = 26, linear mixed-effects model), 409 ng/mL; in data set [7] (C max (CV%), study A, selumetinib 25 mg + fluconazole, N = 22), 509 ng/mL; in data set [7] (C max (CV%), study A, selumetinib 25 mg + itraconazole, N = 24), 484 ng/mL; in [7] (C max, geometric least squares mean (GLSMR line), study A, selumetinib 25 mg + fluconazole, n = 22, linear mixed-effects model) it was 513 ng/mL; in data set [7] (C max, geometric least squares mean (GLSMR line), study A, selumetinib 25 mg + itraconazole, n = 24, linear mixed-effects model), 484 ng/mL. Moreover, the half-life is 8.24 h in data set [7] (25 mg, t 1/2 arithmetic mean (SD), study A, selumetinib 25 mg alone, N = 26); around 1.5 h in data set [7] (mean t 1/2 prolonged by, co-dosed with fluconazole vs selumetinib alone); around 6 h in data set [7] (mean terminal half-life (t 1/2) prolonged by, co-dosed with itraconazole vs selumetinib alone); 9.75 h in data set [7] (t 1/2 arithmetic mean (SD), study A, selumetinib 25 mg + fluconazole, N = 22); 14 h in [7] (t 1/2 arithmetic mean (SD), study A, selumetinib 25 mg + itraconazole, N = 24); 9.27 h in data set [9] (t 1/2 arithmetic mean (SD)). In addition, the Tmax in [9] is 1.27 h. Further, the “relation of adverse events to selumetinib treatment” value in data set [10] (all adverse events mild) was “unrelated”. In addition, the “subjects reporting at least one adverse event” value in [10] (selumetinib co-dosed with rifampicin, one subject (erythema)) was determined as 4.5%; in data set [10] (selumetinib-only treatment, four subjects), 18.2%.

As for `CCC(C)n1ncn(-c2ccc(N3CCN(c4ccc(OCC5COC(Cn6cncn6)(c6ccc(Cl)cc6Cl)O5)cc4)CC3)cc2)c1=O` (centres unmarked) [itraconazole, reference compound], the “subjects reporting adverse events” value in data set [1] (setting [11]) is recorded as 20.8%.

Take `CO[C@H]1/C=C/O[C@@]2(C)Oc3c(C)c(O)c4c(O)c(c(/C=N/N5CCN(C)CC5)c(O)c4c3C2=O)NC(=O)/C(C)=C\C=C\[C@H](C)[C@H](O)[C@@H](C)[C@@H](O)[C@@H](C)[C@H](OC(C)=O)[C@@H]1C` [rifampicin, reference compound]: the “subjects reporting adverse events” value in data set [10] (period of rifampicin administration (days 4–11)) is on record as “all subjects”. Besides, the subjects reporting chromaturia result in data set [10] (period of rifampicin administration (days 4–11), resolved 2 to 3 days after treatment ceased) was “reported by all of these subjects”.
